Test results as given in patent US10000474B2, “Histone deacetylase inhibitors and uses thereof” (MUSC FOUNDATION FOR RESEARCH DEVELOPMENT, priority 2014, dated 2018).
Counter-ions that a name gives are not always drawn.

How the values were obtained:
[1] = Cell proliferation assay (MTS, cytotoxicity); assay type: cell-based; settings: human; cell line not given (MV4-11 24 hours or MCF-7 72 hours); 1 μM to 100 μM; average of triplicate
Description: The cytotoxicity of representative compounds of the invention was determined by MTS assay, following the protocol of CellTiter 96® AQueous Non-Radioactive Cell Proliferation Assay (Promega). The cells used in this assay were MV4-11 (human, macrophage, biphenotypic B myelomonocytic leukemia) and MCF-7 (human, epithelial, adenocarcinoma). […] The MV-4-11 cells were incubated with the representative compounds for 24 hours at 37° C. in 5% CO2 while the MCF-7 cells were first seeded on the 96-well plate and were allowed to attach for 1 day and then were incubated with different concentrations of the representative compound for 72 hours at 37° C. in 5% CO2. After 24 or 72 hours 20 μl of MTS reagent solution was added into each well and the cells were incubated for another 4 hours at 37° C. under 5% CO2 environment. The absorbance was measured at 490 nm in a SpectraMax M5 plate reader (Molecular Devices) to determine the cell viability. The absorbance was directly proportional to the amount of viable cells. All determinations were carried out in triplicate, and reported values in Table 2 below were the average of these determinations, which in no case varied by more than 5%.

Recombinant human HDAC8 = target: T1, Recombinant human HDAC8 (Homo sapiens, UniProt Q9BY41); experiment: HDAC inhibitory assay, HDAC8 (Ac-RHK(Ac)K(Ac)-AMC substrate); assay type: biochemical; settings: test concentration not given; average of triplicate
T1 construct: purchased BPS Biosciences
T1 sequence (Q9BY41 1-377): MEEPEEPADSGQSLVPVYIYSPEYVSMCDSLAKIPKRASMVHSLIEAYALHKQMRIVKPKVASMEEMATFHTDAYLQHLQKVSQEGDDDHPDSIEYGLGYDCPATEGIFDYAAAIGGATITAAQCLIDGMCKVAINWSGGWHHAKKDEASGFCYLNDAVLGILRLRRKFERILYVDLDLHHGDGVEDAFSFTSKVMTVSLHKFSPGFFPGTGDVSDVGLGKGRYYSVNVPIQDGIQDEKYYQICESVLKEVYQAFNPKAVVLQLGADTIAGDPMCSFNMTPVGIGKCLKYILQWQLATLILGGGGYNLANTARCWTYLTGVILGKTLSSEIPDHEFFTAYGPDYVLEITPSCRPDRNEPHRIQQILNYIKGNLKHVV
Description: The compounds of Examples 1-12 and 14-16 were evaluated for their ability to act as inhibitors of human HDAC. The compound of Example 13 was not tested. Recombinant human HDAC1, HDAC2, HDAC3/NcoR2, HDAC5, HDAC6, HDAC8, HDAC9, HDAC10 and HDAC11 were purchased from BPS Biosciences. Recombinant human HDAC4 and HDAC7 were purchased from Millipore. The substrate Boc-Lys(Ac)-AMC and Boc-Lys(Tfa)-AMC were purchased from Bachem. The substrate Ac-RHK(Ac)K(Ac)-AMC was purchased from Enzo Life Sciences. Due to the different specific activities of each isoform, different amount of enzyme was used in each isoform screening assay. In these assays, trichostatin A (TSA), suberanilohydroxamic acid and diphenylacetohydroxamic acid (DPAHA) were employed as positive controls. All determinations were carried out in triplicate, and reported values were the average of these determinations, which in no case varied by more than 5%.
For evaluating the inhibition of HDAC8, 10 μl of test samples were first incubated with 25 ng HDAC8 (specific activity 298 pmol/min/μg). Then 25 μl of the fluorogenic peptide from p53 residues 379-382 (Ac-RHK(Ac)K(Ac)-AMC, 50 μM final concentration) was added and incubated at 37° C. for 30-60 min, and followed by adding 50 μl of developer (1 mg/ml trypsin and 1 uM TSA). The last step was to read the samples in a SpectraMax M5 plate reader (Molecular Devices) at an excitation wavelength of 360 nm and an emission wavelength of 460 nm.

Row | SMILES | HDAC 8 inhibitory activity (Recombinant human HDAC8) [%] | melting point [°C] | IC50 [1] [µM]
1 | O=C(Nc1ccccc1)c1coc(-c2ccccc2O)n1 [Example 1, 2-(2-Hydroxyphenyl)-N-phenyloxazole-4-carboxamide] | 0 | 173 to 174 | 25
2 | O=C(NC(c1ccccc1)c1ccccc1)c1coc(-c2ccccc2O)n1 [Example 2, N-Benzhydryl-2-(2-hydroxyphenyl)oxazole-4-carboxamide] | 23.3 | 226 to 227 | 7.6
3 | O=C(NCC(c1ccccc1)c1ccccc1)c1coc(-c2ccccc2O)n1 [Example 3, N-(2,2-Diphenylethyl)-2-(2-hydroxyphenyl)oxazole-4-carboxamide] | 16.7 | 206 to 208 | 40
4 | O=C(NCCC(c1ccccc1)c1ccccc1)c1coc(-c2ccccc2O)n1 [Example 4, N-(3,3-Diphenylpropyl)-2-(2-hydroxyphenyl)oxazole-4-carboxamide] | 7.2 | – | –
5 | O=C(Nc1ccc(-c2ccccc2)cc1)c1coc(-c2ccccc2O)n1 [Example 5, N-([1,1′-Biphenyl]-4-yl)-2-(2-hydroxyphenyl)oxazole-4-carboxamide] | 7.2 | 218 to 219 | –
6 | O=C(NCc1ccc(-c2ccccc2)cc1)c1coc(-c2ccccc2O)n1 [Example 6, N-([1,1′-Biphenyl]-4-ylmethyl)-2-(2-hydroxyphenyl)oxazole-4-carboxamide] | 17.9 | 220 to 221 | > 100
7 | O=C(NCc1cccc2ccccc12)c1coc(-c2ccccc2O)n1 [Example 7, 2-(2-Hydroxyphenyl)-N-(naphthalen-1-ylmethyl)oxazole-4-carboxamide] | 10.6 | – | –
8 | O=C(NCCc1c[nH]c2ccccc12)c1coc(-c2ccccc2O)n1 [Example 8, N-(2-(1H-Indol-3-yl)ethyl)-2-(2-hydroxyphenyl)oxazole-4-carboxamide] | 7.7 | – | –
9 | O=C(NCCCCN1C(=O)c2ccccc2C1=O)c1coc(-c2ccccc2O)n1 [Example 9, N-(4-(1,3-Dioxoisoindolin-2-yl)butyl)-2-(2-hydroxyphenyl)oxazole-4-carboxamide] | 9.6 | – | –
10 | O=C(NCCCCNC(=O)C(c1ccccc1)c1ccccc1)c1coc(-c2ccccc2O)n1 [Example 10, N-(4-(2,2-Diphenylacetamido)butyl)-2-(2-hydroxyphenyl)oxazole-4-carboxamide] | 0 | – | –

More lines, main results first:

Row | HDAC 8 inhibitory activity (Recombinant human HDAC8) [%] | melting point [°C] | SMILES | IC50 [1] [µM]
11 | 0 | – | O=C(NCCCCNC(=S)NCCC(c1ccccc1)c1ccccc1)c1coc(-c2ccccc2O)n1 [Example 11, N-(4-(3-(3,3-Diphenylpropyl)thioureido)butyl)-2-(2-hydroxyphenyl)oxazole-4-carboxamide] | –
12 | 14.0 | – | O=C(NCCCCNCCC(c1ccccc1)c1ccccc1)c1coc(-c2ccccc2O)n1 [Example 12, N-(4-((3,3-Diphenylpropyl)amino)butyl)-2-(2-hydroxyphenyl)oxazole-4-carboxamide hydrochloride] | –
13 | 20.0 | 248 to 251 | O=C(O)c1ccc(CNC(=O)c2coc(-c3ccccc3O)n2)cc1 [Example 14, 4-((2-(2-Hydroxyphenyl)oxazole-4-carboxamido)methyl)benzoic acid] | –
14 | 0 | – | O=C(Nc1ccccc1)c1ccc(CNC(=O)c2coc(-c3ccccc3O)n2)cc1 [Example 15, 2-(2-Hydroxyphenyl)-N-(4-(phenylcarbamoyl)benzyl)oxazole-4-carboxamide] | –
15 | 15.0 | – | O=C(CNC(=O)c1coc(-c2ccccc2O)n1)Nc1ccccc1 [Example 16, 2-(2-Hydroxyphenyl)-N-(2-oxo-2-(phenylamino)ethyl)oxazole-4-carboxamide] | –
